Test results reported in PMC11005379, “Control of three-carbon amino acid homeostasis by promiscuous importers and exporters in Bacillus subtilis: role of the “sleeping beauty” amino acid exporters” (mBio, 2024).

Columns and labels:
Assay type in all cases: cell-based
AimA = biological target: T1, AimA (Bacillus subtilis, UniProt Q45577); assay: radiolabelled substrate uptake, wild type against deletion strain; conditions: labelled compound, 30 mM beta-alanine, C-Glc minimal medium, intact cells
T1 construct: native full-length APC superfamily permease in intact B. subtilis cells; wild type 168 against deltaaimA (GP3590)
T1 sequence (Q45577 1-539): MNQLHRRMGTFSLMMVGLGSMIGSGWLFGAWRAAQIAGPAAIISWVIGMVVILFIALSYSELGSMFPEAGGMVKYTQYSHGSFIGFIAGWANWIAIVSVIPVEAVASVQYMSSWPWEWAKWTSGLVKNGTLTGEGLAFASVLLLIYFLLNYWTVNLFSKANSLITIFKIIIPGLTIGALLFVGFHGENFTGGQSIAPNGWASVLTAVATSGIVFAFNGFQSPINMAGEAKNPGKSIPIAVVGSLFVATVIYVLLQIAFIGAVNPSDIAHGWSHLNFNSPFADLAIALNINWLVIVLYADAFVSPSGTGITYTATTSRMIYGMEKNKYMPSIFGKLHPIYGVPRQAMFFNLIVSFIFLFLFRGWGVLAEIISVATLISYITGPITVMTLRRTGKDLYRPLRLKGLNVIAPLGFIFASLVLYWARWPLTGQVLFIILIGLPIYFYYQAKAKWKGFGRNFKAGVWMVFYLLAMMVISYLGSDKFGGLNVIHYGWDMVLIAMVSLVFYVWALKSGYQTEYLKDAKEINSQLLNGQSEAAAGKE

AexA (YdeD) = biological target: T2, AexA (YdeD) (Bacillus subtilis, UniProt P96661); assay: intracellular accumulation of radiolabelled substrate, overexpressing against deletion strain; conditions: labelled compound; 30 mM beta-alanine; C-Glc minimal medium; export; intact cells
T2 construct: native full-length EamA family exporter in intact B. subtilis cells; chromosomal gene overexpressed by aerA Y179D (GP4117) against aerA Y179D deltaaexA (GP3958)
T2 sequence (P96661 1-319): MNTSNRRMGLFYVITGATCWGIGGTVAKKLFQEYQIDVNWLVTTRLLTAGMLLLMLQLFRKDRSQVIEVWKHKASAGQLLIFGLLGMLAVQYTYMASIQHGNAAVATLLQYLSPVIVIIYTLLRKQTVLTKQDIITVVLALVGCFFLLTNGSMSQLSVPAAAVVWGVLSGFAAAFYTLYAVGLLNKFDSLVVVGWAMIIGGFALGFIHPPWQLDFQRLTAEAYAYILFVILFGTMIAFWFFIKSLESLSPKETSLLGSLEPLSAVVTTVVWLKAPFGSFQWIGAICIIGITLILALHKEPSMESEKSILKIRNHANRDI

AlaP = biological target: T3, AlaP (Bacillus subtilis, UniProt O34618); assay: radiolabelled substrate uptake, wild type against deletion strain; conditions: labelled compound, 30 mM beta-alanine, C-Glc minimal medium, intact cells
T3 construct: gene ytnA; native full-length APC superfamily permease in intact B. subtilis cells
T3 sequence (O34618 1-463): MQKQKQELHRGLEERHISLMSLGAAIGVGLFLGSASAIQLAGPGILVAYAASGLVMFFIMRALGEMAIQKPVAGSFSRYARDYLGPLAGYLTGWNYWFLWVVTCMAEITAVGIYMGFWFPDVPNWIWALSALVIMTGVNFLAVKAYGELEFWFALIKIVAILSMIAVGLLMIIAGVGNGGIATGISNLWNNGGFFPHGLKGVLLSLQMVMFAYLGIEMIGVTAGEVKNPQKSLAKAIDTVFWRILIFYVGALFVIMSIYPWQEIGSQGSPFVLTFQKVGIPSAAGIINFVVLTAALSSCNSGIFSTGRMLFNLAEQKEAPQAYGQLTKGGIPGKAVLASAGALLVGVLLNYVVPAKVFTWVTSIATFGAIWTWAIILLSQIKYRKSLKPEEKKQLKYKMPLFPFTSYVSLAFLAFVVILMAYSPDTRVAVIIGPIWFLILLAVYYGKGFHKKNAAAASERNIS

NCCC(=O)O [β-alanine]
radiolabelled substrate uptake, wild type against deletion strain (AimA): a severe reduction was observed in the alaP and aimA mutants
intracellular accumulation of radiolabelled substrate, overexpressing against de (AexA (YdeD)): clearly demonstrates that AexA indeed acts as an exporter for β-alanine
radiolabelled substrate uptake, wild type against deletion strain (AlaP): a severe reduction was observed in the alaP and aimA mutants
